Laboratory results reported in ChEMBL document CHEMBL5338734, “Anticancer Activity of Region B Capsaicin Analogs” (J Med Chem, 2023).
One block for each compound: values may come before it.

How the values were obtained:
SCC-9 = experiment: Antiproliferative activity against human SCC-9 cells assessed as inhibition of cell growth incubated for 24 hrs by MTS assay; assay type: functional, cell-based; conditions: SCC-9, 24 h
CAL-27 [1] = experiment: Antiproliferative activity against human CAL-27 cells assessed as inhibition of cell growth incubated for 24 hrs by MTS assay; assay type: functional, cell-based; conditions: CAL-27, 24 h
CAL-27 [2] = experiment: Antitumor activity against human CAL-27 cells xenografted in mouse assessed as mean tumor volume at 12 mg/kg, ip measured for 4 weeks by hematoxylin and eosin staining based analysis (reference value: 541 […]); assay type: functional
SCC-4 = experiment: Antiproliferative activity against human SCC-4 cells assessed as inhibition of cell growth incubated for 24 hrs by MTS assay; assay type: functional, cell-based; conditions: SCC-4, 24 h
CAL-27 [3] = experiment: Antitumor activity against human CAL-27 cells xenografted in mouse assessed as fold decrease in tumor size at 12 mg/kg, ip measured for 4 weeks by hematoxylin and eosin staining based analysis relative to control; assay type: functional
HSC-3 = experiment: Antiproliferative activity against human HSC-3 cells assessed as inhibition of cell growth incubated for 24 hrs by MTS assay; assay type: functional, cell-based; conditions: HSC-3, 24 h
[4] = Cytotoxicity against human OKF6/TERT-2 cells assessed as inhibition of cell growth at >7.5 uM incubated for 24 hrs by MTS assay; assay type: toxicity, cell-based; conditions: read-out: Activity
HeLa = experiment: Antiproliferative activity against human HeLa cells assessed as inhibition of cell growth incubated for 24 hrs by MTS assay; assay type: functional, cell-based
CAL-27 [5] = experiment: Antiproliferative activity against human CAL-27 cells assessed as reduction of cell growth at 500 uM incubated for 24 hrs in presence of gefitinib by MTS assay; assay type: functional; set-up: scale not given: the % may be the effect or the level left
MDA-MB-231 [6] = experiment: Antiproliferative activity against human MDA-MB-231 cells assessed as inhibition of cell growth incubated for 24 hrs by MTS assay; assay type: functional, cell-based; conditions: MDA-MB-231, 24 h
CAL-27 [7] = experiment: Antiproliferative activity against human CAL-27 cells assessed as reduction of cell growth at 500 uM incubated for 24 hrs by MTS assay; assay type: functional; set-up: scale not given: the % may be the effect or the level left
NCI-H460 = experiment: Antiproliferative activity against human NCI-H460 cells assessed as inhibition of cell growth incubated for 24 hrs by MTS assay; assay type: functional, cell-based; conditions: NCI-H460, 24 h
CAL-27 [8] = experiment: Antiproliferative activity against human CAL-27 cells assessed as reduction of cell growth at 500 uM incubated for 24 hrs in presence of cisplatin by MTS assay; assay type: functional; set-up: scale not given: the % may be the effect or the level left
PC-3 = experiment: Antiproliferative activity against human PC-3 cells assessed as inhibition of cell growth incubated for 24 hrs by MTS assay; assay type: functional, cell-based; conditions: PC-3, 24 h
SK-MEL-28 [9] = experiment: Antiproliferative activity against human SK-MEL-28 cells assessed as inhibition of cell growth incubated for 24 hrs by MTT assay; assay type: functional, cell-based; conditions: SK-MEL-28, 24 h
[10] = Antiproliferative activity against human SK-MEL-85 cells assessed as inhibition of cell growth incubated for 24 hrs by MTT assay; assay type: functional, cell-based; conditions: SK-MEL-85, 24 h
SBcl2 = experiment: Antiproliferative activity against human SBcl2 cells assessed as inhibition of cell growth incubated for 24 hrs by MTT assay; assay type: functional, cell-based; conditions: SBcl2, 24 h
MCF7 [11] = experiment: Antiproliferative activity against human MCF7 cells assessed as inhibition of cell growth incubated for 24 hrs by MTT assay; assay type: functional, cell-based; conditions: MCF7, 24 h
MCF7 [12] = experiment: Antiproliferative activity against human MCF7 cells assessed as inhibition of cell growth by MTT assay; assay type: functional, cell-based
BT-474 = experiment: Antiproliferative activity against human BT-474 cells assessed as inhibition of cell growth by MTT assay; assay type: functional, cell-based
MDA-MB-231 [13] = experiment: Antiproliferative activity against human MDA-MB-231 cells assessed as inhibition of cell growth by MTT assay; assay type: functional, cell-based
Jurkat = experiment: Induction of apoptosis in human Jurkat cells assessed as increase in apoptotic cells by propidium iodide staining based flow cytometry; assay type: functional, cell-based
B16-F10 = experiment: Antiproliferative activity against B16-F10 cells assessed as inhibition of cell growth measured after 24 hrs by MTT assay; assay type: functional, cell-based; conditions: Mus musculus, B16-F10, 24 h
NCI-H1299 = experiment: Antiproliferative activity against human NCI-H1299 cells assessed as inhibition of cell growth measured after 24 hrs by MTT assay; assay type: functional, cell-based; conditions: NCI-H1299, 24 h
SK-MEL-28 [14] = experiment: Antiproliferative activity against human SK-MEL-28 cells assessed as inhibition of cell growth measured after 24 hrs by MTT assay; assay type: functional, cell-based; conditions: SK-MEL-28, 24 h
DU-145 = experiment: Antiproliferative activity against human DU-145 cells assessed as inhibition of cell growth; assay type: functional, cell-based
CAL-27 [15] = experiment: Antiproliferative activity against human CAL-27 cells assessed as reduction of cell growth at 100 nM incubated for 24 hrs by MTS assay; assay type: functional; set-up: scale not given: the % may be the effect or the level left
T-24 = experiment: Antiproliferative activity against human T24 cells assessed as inhibition of cell growth measured after 24 hrs by MTT assay; assay type: functional, cell-based; conditions: T-24, 24 h
5637 = experiment: Antiproliferative activity against human 5637 cells assessed as inhibition of cell growth measured after 24 hrs by MTT assay; assay type: functional, cell-based; conditions: Homo sapiens, 5637, 24 h

SMILES: Oc1cc2c(cc1O)CN(C(=S)NCCc1ccc(Cl)cc1)CC2
IC50 (SCC-9): 2.5 µM
IC50 (CAL-27 [1]): 2.5 µM
Activity (CAL-27 [2]): 211 mm3
IC50 (SCC-4): 2.5 µM
fold change (FC) (CAL-27 [3]): 2.6
IC50 (HSC-3): 2.5 µM
inhibition at 24 h [4]: 20%

SMILES: COc1cc(COC(=O)CCCCCC(C)C)ccc1O
IC50 (Jurkat): ~70 µM

SMILES: Oc1cc2c(cc1O)C(c1ccccc1)N(C(=S)NCc1ccccc1)CC2 (stereo not given)
IC50 (SCC-9): 20 µM
IC50 (CAL-27 [1]): 20 µM
Activity (CAL-27 [2]): 134 mm3
IC50 (SCC-4): 20 µM
fold change (FC) (CAL-27 [3]): 1.6
IC50 (HSC-3): 20 µM
inhibition at 24 h [4]: 20%

SMILES: COc1cc(CNC(=O)CCCC/C=C/C(C)C)ccc1O [CAPSAICIN]
IC50 (B16-F10): 117 µM
IC50 (Jurkat): ~128 µM
IC50 (MCF7 [11]): ~53 µM
IC50 (NCI-H1299): ≥ 200 µM

SMILES: COc1cc2ncnc(Nc3ccc(F)c(Cl)c3)c2cc1OCCCN1CCOCC1 [GEFITINIB]
Activity (CAL-27 [15]): 50%

SMILES: C=C(C)[C@]12C[C@@H](C)[C@@]34O[C@](Cc5ccccc5)(O[C@@H]1[C@@H]3C=C(COC(=O)Cc1ccc(O)c(OC)c1)C[C@]1(O)C(=O)C(C)=C[C@@H]41)O2 [RESINIFERATOXIN]
IC50 (T-24): ~21.4 µM
IC50 5637: 19.9 µM

The next lines start with results.

IC50 (HeLa): ~5 µM
IC50 (MDA-MB-231 [6]): 2.5 µM
IC50 (NCI-H460): 7.5 µM
IC50 (PC-3): 1 µM
SMILES: Oc1cc2c(cc1O)C(c1ccccc1)N(C(=S)NCCc1ccc(Cl)cc1)CC2 (stereo not given)
Activity (CAL-27 [5]): ~80%
IC50 (SCC-9): 1 µM
IC50 (CAL-27 [1]): 1 µM
Activity (CAL-27 [2]): 333 mm3
IC50 (SCC-4): 1 µM
Activity (CAL-27 [7]): 20%
fold change (FC) (CAL-27 [3]): 4
IC50 (HSC-3): 1 µM
Activity (CAL-27 [8]): 95%
inhibition at 24 h [4]: 20%

IC50 (SK-MEL-28 [9]): 19.1 µM
IC50 (MCF7 [11]): 32 µM
SMILES: O=S(=O)(NCc1ccc2c(c1)OCO2)c1ccccc1
IC50 [10]: 15.7 µM
IC50 (SBcl2): 17.5 µM

IC50 (MCF7 [12]): 3 µM
IC50 (BT-474): 10.6 µM
IC50 (MDA-MB-231 [13]): 40.8 µM
SMILES: CCOC(=O)C1=C(c2ccccc2)NC(C)=C(C(=O)SCCOC)C1CC (stereo not given)

IC50 (B16-F10): 117 µM
IC50 (NCI-H1299): 187 µM
SMILES: COc1ccc(CC(=O)OCc2ccc3c(c2)OCO3)cc1

IC50 (B16-F10): 87 µM
IC50 (SK-MEL-28 [14]): 85 µM
SMILES: CCCCCCCCCCC(=O)OCc1ccc2c(c1)OCO2

IC50 (DU-145): 54 µM
SMILES: Oc1cc2c(cc1O)CN(C(=S)NCCc1ccc(Cl)cc1)CCC2 [CAPSAZEPINE]
Activity (CAL-27 [2]): 269 mm3
fold change (FC) (CAL-27 [3]): 2
